From patent publication US4308273A, “1,6-Naphthyridine derivatives, and antidinic and cerebral circulation improver containing such derivatives” (Nippon Kayaku Kabushiki Kaisha, priority 1978, dated 1981)
Read-outs that look alike come from different tables or passages of the source.

What was measured:
[1] = Inhibition of spontaneous nystagmus produced by unilateral destruction of the labyrinth (anti-vertigo action); type: in vivo; details: cats; for inhibition at 12 mg/kg / inhibition at 6 mg/kg: Felis catus, iv, read-out: Effect of compounds on the nystagmus expressed as inhibitory percentage
Experimental: (1) It is well known that vertigo resulting from the disturbance of the peripheral labyrinth is accompanied by nystagmus. So, we acutely produced the spontaneous nystagmus by unilateral destruction of the labyrinth in cats and used it as an experimental model of vertigo. a pair of Ag--AgCl cup electrodes was placed laterally to both orbits and an indifferent electrode on the forehead. The nystagmus was recorded through an amplifier. The inhibitory effect of the compounds on the nystagmus was expressed by [formula] where A is the frequency of the nystagmus in ten seconds before administration of the compounds and B is the frequency of the nystagmus at the maximum inhibitory point after administration. The duration of the effect was also measured. Compounds dissolved in saline were injected into the femoral vein. Betahistine and diphenidol were used as standard drugs.
A: Doses of compounds injected intraveneously.
B: Effect of compounds on the nystagmus expressed as inhibitory
C: Duration of the effect of compounds

[2] = Acute toxicity (LD50) by intraperitoneal injection; details: mouse, in vivo, ip
Experimental: LD50 values of the compounds by intraperitoneal injection in mice were determined.

[3] = Cerebral vasodilating action: vertebral arterial flow, intra-arterial injection; type: in vivo; details: Canis lupus familiaris; dogs, 1 mg intraarterially; read-out: Percent increase in vertebral arterial flow when injected intraarterially
Experimental: A: Percent increase in vertebral arterial flow when injected
intraarterially (1 mg) to dogs.
(1) For the experimental evaluation of cerebral vasodilating action, the canine vertebral arterial preparation was used. The carotid arterial blood was led to the vertebral artery by a short extracorporeal loop. The vertebral arterial flow was measured by an electromagnetic flow transducer inserted in the circuit. The action of the compounds on the vertebral arterial flow was expressed by percent increase when 1 mg of each compound was injected intra-arterially.

[4] = Effects of intravenous injection on mean arterial pressure, heart rate and vertebral arterial flow in anesthetized dogs; details: for change in vivo at 1 mg/kg: Canis lupus familiaris, iv, read-out: Percent increase in vertebral arterial flow when injected intravenously; for Changes in heart rate when injected intravenously / Changes in systemic blood pressure when injected intravenously: anesthetized dogs, 1 mg/kg intravenously
Experimental: (§1) Pressure in the carotid artery was measured by a pressure transducer and mean arterial pressure was obtained by electrical integration. Heart rate was obtained by a cardiotachometer, triggered by a signal from the pressure pulse. The vertebral arterial flow was measured by fitting an electromagnetic flow transducer. The action on systemic mean arterial pressure, heart rate and vertebral arterial flow were represented by Δ mmHg, Δ beats/min and percent increase.

[5] = Effect on the hexobarbital-induced sleeping time; details: male mice, 50 mg/kg subcutaneously, 15 min prior to sodium hexobarbital i.p.
Experimental: Groups consisted of 10 male-mice were administered the compounds or saline subcutaneously 15 min. prior to an intraperitoneal injection of sodium hexobarbital. Sleeping time for each animal in a group was measured. The averaged value of sleeping time in each group was calculated. The action of the sleeping time was expressed by the percentage of the sleeping time in the compound-treated groups to that in the saline-treated group.
D: Sleeping time of the compound (50 mg/kg, subcutaneously)treated groups
expressd as percentage to that of the control group.

[6] = dog, in vivo, iv, 1 mg/kg
Experimental: as §1

[7] = 12 mg/kg injected intravenously
[8] = male mice, intraperitoneal injection (Table 3)
[9] = mice, intraperitoneal injection (Table 4)

| Compound | inhibition at 12 mg/kg [1, 7] | Duration of the effect of compounds (nystagmus) [1, 7] | LD50 [2, 8] | change in vivo at 1 mg [3] | change in vivo at 1 mg/kg [4] | Changes in heart rate when injected intravenously [4] | Changes in systemic blood pressure when injected intravenously [4] | LD50 [2, 9] | Sleeping time of the compound treated groups expressed as percentage to that of the control group [5] | inhibition at 6 mg/kg ([1]; 6 mg/kg injected intravenously) | Duration of the effect of compounds (nystagmus) ([1]; 6 mg/kg injected intravenously) | Changes in heart rate when injected intravenously [6] | Changes in systemic blood pressure when injected intravenously [6] |
| --- | --- | --- | --- | --- | --- | --- | --- | --- | --- | --- | --- | --- | --- |
| CCCCCN1CCc2ncccc2C1 [Compound 6, 5,6,7,8-tetrahydro-6-n-amyl-1,6-naphthyridine] | 86% | 10 min | 165 mg/kg |  |  |  |  |  |  |  |  |  |  |
| CC(C)CCN1CCc2ncccc2C1 [Compound 7] | 85% | 6 min | 219 mg/kg |  |  |  |  |  |  |  |  |  |  |
| CCCCCCN1CCc2ncccc2C1 [Compound 8] | 88% | 10 min | 194 mg/kg | 67% | 20.1% | +8 Δ beats/min | -18.5 Δ mmHg |  |  |  |  |  |  |
| CCCCCCCN1CCc2ncccc2C1 [Compound 9] | 79% | 10 min | 208 mg/kg | 78% | 15.5% | +8 Δ beats/min | -20.0 Δ mmHg |  |  |  |  |  |  |
| CCCCCCCCCCN1CCc2ncccc2C1 [Compound 11] |  |  |  | 99% | 25% | +8 Δ beats/min | -5.0 Δ mmHg | 156 mg/kg |  |  |  |  |  |
| C=CCN1CCc2ncccc2C1 [Compound 12, 5,6,7,8-tetrahydro-6-allyl-1,6-naphtyridine] | 98% | 50 min | 208 mg/kg |  |  |  |  |  | 132.5% | 90% | 40 min |  |  |
| C=CCCN1CCc2ncccc2C1 [Compound 14, 5,6,7,8-tetrahydro-6-(3-butenyl)-1,6-naphthyridine] | 77% | 28 min | 239 mg/kg |  |  |  |  |  |  |  |  |  |  |
| CCCCCC=CCN1CCc2ncccc2C1 [Compound 19] | 65% | 25 min | 304 mg/kg |  |  |  |  |  |  |  |  |  |  |
| CC(C)=CCC/C(C)=C/CN1CCc2ncccc2C1 [Compound 20] |  |  |  | 69% | 20% | +12 Δ beats/min | -11.7 Δ mmHg | 292 mg/kg |  |  |  |  |  |
| c1cnc2c(c1)CN(CC1CCC1)CC2 [Compound 23] | 83% | 8 min | 214 mg/kg |  |  |  |  |  |  |  |  |  |  |
| c1ccc(OCCCN2CCc3ncccc3C2)cc1 [Compound 27] | 90% | 30 min | 208 mg/kg |  |  |  |  |  |  |  |  |  |  |
| c1ccc(CN2CCc3ncccc3C2)cc1 [Compound 31] | 57% | 9 min | 262 mg/kg | 90% | 36% | +16 Δ beats/min | -12.0 Δ mmHg |  |  |  |  |  |  |
| Clc1ccc(CN2CCc3ncccc3C2)cc1 [Compound 33] |  |  |  | 75% | 30% | +8 Δ beats/min | -23.5 Δ mmHg |  |  |  |  |  |  |
| Cc1ccc(CN2CCc3ncccc3C2)cc1 [Compound 34] |  |  |  | 93% | 18% | +8 Δ beats/min | -10.0 Δ mmHg | 518 mg/kg |  |  |  |  |  |
| CCc1ccc(CN2CCc3ncccc3C2)cc1 [Compound 35] |  |  |  | 56% | 27.3% | +8 Δ beats/min | -21.7 Δ mmHg |  |  |  |  |  |  |
| CC(C)c1cccc(CN2CCc3ncccc3C2)c1 [Compound 36] |  |  |  | 100% | 22% | +8 Δ beats/min | -20.0 Δ mmHg | 368 mg/kg |  |  |  |  |  |

| Compound | inhibition at 12 mg/kg [1, 7] | Duration of the effect of compounds (nystagmus) [1, 7] | LD50 [2, 8] | change in vivo at 1 mg [3] | change in vivo at 1 mg/kg [4] | Changes in heart rate when injected intravenously [4] | Changes in systemic blood pressure when injected intravenously [4] | LD50 [2, 9] | Sleeping time of the compound treated groups expressed as percentage to that of the control group [5] | inhibition at 6 mg/kg ([1]; 6 mg/kg injected intravenously) | Duration of the effect of compounds (nystagmus) ([1]; 6 mg/kg injected intravenously) | Changes in heart rate when injected intravenously [6] | Changes in systemic blood pressure when injected intravenously [6] |
| --- | --- | --- | --- | --- | --- | --- | --- | --- | --- | --- | --- | --- | --- |
| CC(C)c1ccc(CN2CCc3ncccc3C2)cc1 [Compound 37] |  |  |  | 110% | 33.3% |  | -13.3 Δ mmHg | 300 mg/kg |  |  |  |  |  |
| CC(C)(C)c1ccc(CN2CCc3ncccc3C2)cc1 [Compound 38] |  |  |  | 78% | 28.6% |  | -11.7 Δ mmHg |  |  |  |  |  |  |
| Clc1ccc(CN2CCc3ncccc3C2)cc1Cl [Compound 44] |  |  |  | 107% | 30.8% | +32 Δ beats/min | -16.7 Δ mmHg | 270 mg/kg |  |  |  |  |  |
| COc1ccc(CN2CCc3ncccc3C2)cc1OC [Compound 46, 5,6,7,8-tetrahydro-6-(3,4-dimethoxybenzyl)-1,6-naphthyridine] |  |  |  | 99% | 50% | +32 Δ beats/min | -27.2 Δ mmHg | 262 mg/kg |  |  |  |  |  |
| CCCOc1cc(CN2CCc3ncccc3C2)ccc1OC [Compound 49] |  |  |  | 93% | 21.2% |  |  | 174 mg/kg |  |  |  | +24 Δ beats/min | -11.6 Δ mmHg |
| CCCOc1ccc(CN2CCc3ncccc3C2)cc1OCCC [Compound 50] |  |  |  | 79% | 30.6% |  |  | 200 mg/kg |  |  |  | +16 Δ beats/min | -10.0 Δ mmHg |
| CCCCOc1ccc(CN2CCc3ncccc3C2)cc1OCCCC [Compound 51] |  |  |  | 77% | 16.7% |  |  |  |  |  |  | 0 Δ beats/min | 0 Δ mmHg |
| c1ccc(CCN2CCc3ncccc3C2)cc1 [Compound 55] | 92% | 5 min | 219 mg/kg |  |  |  |  |  |  |  |  |  |  |
| c1ccc(CCCN2CCc3ncccc3C2)cc1 [Compound 57] | 97% | 10 min | 159 mg/kg |  |  |  |  |  |  |  |  |  |  |
| C(=C\c1ccccc1)/CN1CCc2ncccc2C1 [Compound 58, 5,6,7,8-tetrahydro-6-cinnamyl-1,6-naphthyridine] | 53% | 35 min | 263 mg/kg | 81% | 22.2% | +40 Δ beats/min | -13.3 Δ mmHg |  |  |  |  |  |  |
| Clc1ccccc1C=CCN1CCc2ncccc2C1 [Compound 61] |  |  |  | 84% | 29.2% | +24 Δ beats/min | -20.0 Δ mmHg |  |  |  |  |  |  |
| O=[N+]([O-])c1ccccc1C=CCN1CCc2ncccc2C1 [Compound 67] |  |  |  | 75% | 40% | +16 Δ beats/min | -31.7 Δ mmHg |  |  |  |  |  |  |
| Clc1ccc(C=CCN2CCc3ncccc3C2)c(Cl)c1 [Compound 70] |  |  |  | 158% | 60% | +16 Δ beats/min | -11.7 Δ mmHg | 220 mg/kg |  |  |  |  |  |
| Clc1ccc(C=CCN2CCc3ncccc3C2)cc1Cl [Compound 71] |  |  |  | 116% | 44.4% | +40 Δ beats/min | -38.3 Δ mmHg | 199 mg/kg |  |  |  |  |  |
| Cc1ccc(C)c(C=CCN2CCc3ncccc3C2)c1 [Compound 72] |  |  |  | 92% | 40% | +48 Δ beats/min | -38.3 Δ mmHg | 242 mg/kg |  |  |  |  |  |
| CNCCc1ccccn1 [betahistine, reference compound] | 80% | 8 min | 864 mg/kg | 90% | 14.3% |  |  |  |  | 55% | 5 min | +52 Δ beats/min | -100.0 Δ mmHg |
